Results reported in article PMC5580309, “Molecular-scale features that govern the effects of O-glycosylation on a carbohydrate-binding module” (Chemical Science, 2015).
Bridge positions count the residues as written; N and C are the ends. Square brackets hold non-standard residues; d marks the D form. Peptide text beside a SMILES is read from it. * marks the point of attachment. X8 = O=P(O)(O)OC[C@H]1O[C@H](O[C@H]2[C@@H](O)[C@H](O)[C@@H](CO)O[C@@H]2*)[C@@H](O)[C@@H](O)[C@@H]1O; αMan = OC[C@H]1O[C@H](*)[C@@H](O)[C@@H](O)[C@@H]1O

Target: T1, thermolysin (Bacillus thermoproteolyticus, UniProt P00800)
T1 sequence (P00800 233-548): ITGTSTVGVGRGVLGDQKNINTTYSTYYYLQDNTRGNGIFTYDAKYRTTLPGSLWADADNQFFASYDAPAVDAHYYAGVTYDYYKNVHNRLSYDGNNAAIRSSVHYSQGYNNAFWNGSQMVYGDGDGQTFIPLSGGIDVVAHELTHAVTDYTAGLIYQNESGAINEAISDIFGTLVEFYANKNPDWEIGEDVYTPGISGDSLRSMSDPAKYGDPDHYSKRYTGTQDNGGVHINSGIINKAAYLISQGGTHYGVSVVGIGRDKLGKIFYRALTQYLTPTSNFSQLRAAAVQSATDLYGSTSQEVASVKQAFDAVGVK
Test: Proteolytic stability: half-life to thermolysin degradation
Type: in vitro ADME
Conditions: for half-life: thermolysin (isolated protease), thermolysin degradation, mean of three trials ± SD, procedures as described previously (ESI ref 18); for Change in Half-Life to Thermolysin Degradation: glyco-variant minus its corresponding unglycosylated CBM (e.g. 2-1), *** not used in the correlation plot
Description: All error bars reported are standard deviations of data achieved from three separate trials.
cellulose that were determined in accordance with our procedures as described previously 18.
The results are presented as mean of three trials ± SD. *Denotes an averaged value of four trials

SMILES	half-life [min]	Change in Half-Life to Thermolysin Degradation [min]
CC[C@H](C)[C@@H]1NC(=O)CNC(=O)CNC(=O)[C@@H](NC(=O)[C@H](CCC(N)=O)NC(=O)CNC(=O)[C@H](Cc2ccc(O)cc2)NC(=O)[C@H](Cc2c[nH]cn2)NC(=O)[C@@H](CO)NC(=O)[C@H](CCC(N)=O)NC(=O)[C@@H](N)[C@@H](C)O)CSSC[C@@H]2NC(=O)[C@H]([C@@H](C)O)NC(=O)[C@H]([C@@H](C)O)NC(=O)CNC(=O)[C@H](CO)NC(=O)[C@H](C)NC(=O)[C@H](CSSC[C@@H](C(=O)N[C@@H](CC(C)C)C(=O)O)NC(=O)[C@H](CCC(N)=O)NC(=O)[C@H](CO)NC(=O)[C@H](Cc3ccc(O)cc3)NC(=O)[C@H](Cc3ccc(O)cc3)NC(=O)[C@@H]3CCCN3C(=O)[C@H](CC(N)=O)NC(=O)[C@H](CC(C)C)NC(=O)[C@H](C(C)C)NC(=O)[C@H](CCC(N)=O)NC2=O)NC(=O)[C@H](C(C)C)NC(=O)[C@H]([C@@H](C)O)NC(=O)[C@@H]2CCCN2C(=O)CNC(=O)[C@H](CO)NC(=O)[C@H](Cc2ccc(O)cc2)NC(=O)CNC1=O [CBM variant 16] (H-TQ[dS]HYGQCGGIGYSGPTVCASGTTCQVLNPYYSQCL-OH; disulfide 8-25, 19-35)	11.4 ± 2.4	–
CC[C@H](C)[C@@H]1NC(=O)CNC(=O)CNC(=O)[C@@H](NC(=O)[C@H](CCC(N)=O)NC(=O)CNC(=O)[C@H](Cc2ccc(O)cc2)NC(=O)[C@H](C)NC(=O)[C@H](CO[C@H]2O[C@H](CO)[C@@H](O)[C@H](O)[C@@H]2O)NC(=O)[C@H](CCC(N)=O)NC(=O)[C@@H](N)[C@@H](C)O)CSSC[C@@H]2NC(=O)[C@H]([C@@H](C)O)NC(=O)[C@H]([C@@H](C)O)NC(=O)CNC(=O)[C@H](CO)NC(=O)[C@H](C)NC(=O)[C@H](CSSC[C@@H](C(=O)N[C@@H](CC(C)C)C(=O)O)NC(=O)[C@H](CCC(N)=O)NC(=O)[C@H](CO)NC(=O)[C@H](Cc3ccc(O)cc3)NC(=O)[C@H](Cc3ccc(O)cc3)NC(=O)[C@@H]3CCCN3C(=O)[C@H](CC(N)=O)NC(=O)[C@H](CC(C)C)NC(=O)[C@H](C(C)C)NC(=O)[C@H](CCC(N)=O)NC2=O)NC(=O)[C@H](C(C)C)NC(=O)[C@H]([C@@H](C)O)NC(=O)[C@@H]2CCCN2C(=O)CNC(=O)[C@H](CO)NC(=O)[C@H](Cc2ccc(O)cc2)NC(=O)CNC1=O [CBM variant 9] (H-TQS(αMan)AYGQCGGIGYSGPTVCASGTTCQVLNPYYSQCL-OH; disulfide 8-25, 19-35)	39 ± 3	25.8
CC[C@H](C)[C@@H]1NC(=O)CNC(=O)CNC(=O)[C@@H](NC(=O)[C@H](CCC(N)=O)NC(=O)CNC(=O)[C@H](Cc2ccc(O)cc2)NC(=O)[C@H](Cc2c[nH]cn2)NC(=O)[C@H](CO[C@H]2O[C@H](CO)[C@@H](O)[C@H](O)[C@@H]2O[C@H]2O[C@H](COP(=O)(O)O)[C@@H](O)[C@H](O)[C@@H]2O)NC(=O)[C@H](CCC(N)=O)NC(=O)[C@@H](N)[C@@H](C)O)CSSC[C@@H]2NC(=O)[C@H]([C@@H](C)O)NC(=O)[C@H]([C@@H](C)O)NC(=O)CNC(=O)[C@H](CO)NC(=O)[C@H](C)NC(=O)[C@H](CSSC[C@@H](C(=O)N[C@@H](CC(C)C)C(=O)O)NC(=O)[C@H](CCC(N)=O)NC(=O)[C@H](CO)NC(=O)[C@H](Cc3ccc(O)cc3)NC(=O)[C@H](Cc3ccc(O)cc3)NC(=O)[C@@H]3CCCN3C(=O)[C@H](CC(N)=O)NC(=O)[C@H](CC(C)C)NC(=O)[C@H](C(C)C)NC(=O)[C@H](CCC(N)=O)NC2=O)NC(=O)[C@H](C(C)C)NC(=O)[C@H]([C@@H](C)O)NC(=O)[C@@H]2CCCN2C(=O)CNC(=O)[C@H](CO)NC(=O)[C@H](Cc2ccc(O)cc2)NC(=O)CNC1=O [CBM variant 31] (H-TQS(X8)HYGQCGGIGYSGPTVCASGTTCQVLNPYYSQCL-OH; disulfide 8-25, 19-35)	25.8 ± 3	12
